{"source": "patent US20240083846A1", "about": "“SMAC MIMETICS FOR TREATMENT OF CANCER, PROCESS FOR PREPARATION AND PHARMACEUTICAL COMPOSITION THEREOF” (COUNCIL OF SCIENTIFIC & INDUSTRIAL RESEARCH, priority 2020, published 2024)", "key": {"XIAP BIR2 protein": {"biological_target": "XIAP BIR2 protein (Homo sapiens, UniProt P98170)", "sequence (P98170 124-240 limits assumed)": "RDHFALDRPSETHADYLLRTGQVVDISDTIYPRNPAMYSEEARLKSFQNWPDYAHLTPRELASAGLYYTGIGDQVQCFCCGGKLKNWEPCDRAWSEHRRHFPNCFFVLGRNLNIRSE", "assay": "Fluorescence polarization competition binding assay, XIAP BIR2", "settings": "displacement of AVPIAQK(FAM)-OH, fluorescence polarization; read-out: Target Binding BIR2 Ki", "description": "(§1) The SMAC mimetics 1-9 were tested for their ability to displace the fluorescent labeled peptide AVPIAQK(FAM)-OH from XIAP BIR2 or XIAP BIR3 protein. The dose dependent binding experiment were then carried out by sequentially increasing the concentration of SMAC mimetic compounds at constant concentration of fluorescent labeled peptide and XIAP BIR2 or XIAP BIR3 protein. IC5- values were determined from the plot draw by prism software using nonlinear least-squares analysis. The Ki values of the SMAC mimetics were calculated which was based upon the measured IC50 values, the Kd value between tracer AVPIAQK(FAM)-OH and XIAP BIR2 or XIAP BIR3 complex, and the concentrations of the protein and tracer in the competition assay by using the web based program which are freely accessed at http://sw16.im.med.umich.edu/software/calc_ki/.In-silico.\n(§2) Binding isotherms were plotted between FP reading versus log values of protein concentration in nM. The data was analysed using GraphPad prism and Kd values were determined using Boltzmann-sigmoidal non-linear regression curve fitting."}, "XIAP BIR3 protein": {"biological_target": "XIAP BIR3 protein (Homo sapiens, UniProt P98170)", "sequence (P98170 241-356 limits assumed)": "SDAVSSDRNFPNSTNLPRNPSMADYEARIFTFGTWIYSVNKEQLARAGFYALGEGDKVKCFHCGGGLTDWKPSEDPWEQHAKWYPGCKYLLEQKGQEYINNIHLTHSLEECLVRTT", "assay": "Fluorescence polarization competition binding assay, XIAP BIR3", "settings": "displacement of AVPIAQK(FAM)-OH, fluorescence polarization; read-out: Target Binding BIR3 Ki", "description": "as §1, §2"}, "HT29 cells": {"tested_on": "HT29 cells", "assay": "SRB cytotoxicity assay, HT29", "format": "cell-based", "settings": "Homo sapiens, HT-29", "description": "(§3) In vitro cytotoxic activities of different compounds were assessed by using standard SRB assay in different cells. The absorbance of the treated and untreated cells was measured on a multi-well scanning spectrophotometer (Epoch Microplate Reader, Biotek, USA) at a wavelength of 510 nm. Percent growth inhibition was calculated by using the formula […]."}, "HCT 116 cells": {"tested_on": "HCT 116 cells", "assay": "SRB cytotoxicity assay, HCT 116", "format": "cell-based", "settings": "Homo sapiens, HCT-116", "description": "as §3"}, "CT26 cells": {"tested_on": "CT26 cells", "assay": "SRB cytotoxicity assay, CT26", "format": "cell-based", "settings": "Colon (Mouse)", "description": "as §3\n(§4) SMAC mimetics promotes tumor cell selective cytotoxic effects. SW 620, HT 29, HCT 116 and VERO cells were treated with series of Smac mimetics at 10 μM dose for 48 hours and cytotoxicity was measured by SRB assay. As C6 had shown robust in-vitro cytotoxic effect against tumor cells but not to VERO cells, we determined IC50 value of C6 against different types of cancer cell lines. ICso values are represented in Table 2."}, "MCF-7 cells": {"tested_on": "MCF-7 cells", "assay": "SRB cytotoxicity assay, MCF-7", "format": "cell-based", "settings": "Homo sapiens, MCF7, Breast", "description": "as §3, §4"}, "4T1 cells": {"tested_on": "4T1 cells", "assay": "SRB cytotoxicity assay, 4T1", "format": "cell-based", "settings": "Breast (Mouse)", "description": "as §3, §4"}, "786-O cells": {"tested_on": "786-O cells", "assay": "SRB cytotoxicity assay, 786-O", "format": "cell-based", "settings": "Homo sapiens, 786-0, Kidney", "description": "as §3, §4"}, "SK-OV-3 cells": {"tested_on": "SK-OV-3 cells", "assay": "SRB cytotoxicity assay, SK-OV-3", "format": "cell-based", "settings": "Homo sapiens, Ovary", "description": "as §3, §4"}, "[1]": {"assay": "Stability studies of C6 (SIF, SGF, plasma, microsomes)", "format": "in vitro ADME"}, "HCT-116 xenograft": {"tested_on": "HCT-116 xenograft", "assay": "HCT-116 xenograft model", "format": "in vivo, nude Crl: CD1-Foxnlnu mice", "settings": "vs control", "text": "All the animals were maintained in a pathogen-free facility under a day—night cycle."}, "[2]": {"settings": "xenograft studies, FIG. 7 and FIG. 8", "description": "Mice were randomly assigned to groups by a blinded independent investigator. Throughout the study, the tumor was measured with an electronic digital caliper at a regular interval, and the tumor volume was calculated using standard formula V=Π/6×a2×b, where ‘a’ is the short and ‘b’ is the long tumor axis. At the end of the experiment, mice were sacrificed, and subcutaneous tumors were dissected for further studies. Parts of harvested tumors were minced into small pieces with sterile forceps and scissors and homogenized for lysate preparation."}, "[3]": {"assay": "Organ distribution analysis", "format": "in vivo, mice", "settings": "FIG. 9 right panel"}, "[4]": {"tested_on": "TRAIL mediated tumor cell cytotoxic response", "assay": "Combination cytotoxicity with DR5 ligand TRAIL", "format": "cell-based", "settings": "in vitro, FIG. 4"}, "cancer cells": {"tested_on": "cancer cells", "assay": "Colony formation assay", "format": "cell-based", "settings": "FIG. 5", "description": "The clonogenic colony formation assay was done on single-cell suspension. Briefly, cells were plated in complete McCoy's medium into 12-well plates and 24 hours later, were treated with different agents at different doses either alone or in combination. The cells were cultured for two weeks with renewing the media every 3rd day. The plates were washed with PBS and fixed with ice-cold methanol followed by staining with 0.5% crystal violet in methanol for 30 min. Excess stain was removed by washing with water thoroughly and plates were allowed to dry. Representative images were captured in the gel documentation system (Bio-Rad chemidoc XRS plus) while ImageJ software (NIH) was used for analysis and quantification to monitor single cell colony formation efficiency under the different treatment combinations."}, "in vivo": {"assay": "in vivo", "settings": "mouse"}, "[5]": {"assay": "Pharmacokinetics of C6 in mice (IV, SC, oral)"}}, "note": "Entries after “also recorded” stand apart in the source; their conditions may differ."}
{"smiles": "CC[C@H](C)[C@H](NC(=O)[C@@H]1CC[C@H](c2ccc(C)o2)N1C(=O)[C@@H](NC(=O)[C@H](C)NC)C(C)C)C(=O)NC(c1ccccc1)c1ccccc1", "note": "[Compound 6, (2S,5R)-N-((2S,3S)-1-(benzhydrylamino)-3-methyl-1-oxopentan-2-yl)-1-((S)-3-methyl-2-((S)-2-(methylamino)propanamido)butanoyl)-5-(5-methylfuran-2-yl)pyrrolidine-2-carboxamide]", "values": [{"measurement": "Ki", "setting": "XIAP BIR2 protein", "value": 3.21, "unit": "µM"}, {"measurement": "Ki", "setting": "XIAP BIR3 protein", "value": 0.58, "unit": "µM"}, {"measurement": "inhibition at 10 µM", "setting": "HT29 cells; 10 μM, 48 hours, SRB assay, read-out: In vitro cytotoxicity at 10 μM dose, HT29 (percent growth inhibition)", "value": "65 ± 3.6", "unit": "%"}, {"measurement": "IC50", "setting": "HT29 cells; Colon, HT29", "value": 6.66, "unit": "µM"}, {"measurement": "inhibition at 10 µM", "setting": "HCT 116 cells; 10 μM, 48 hours, SRB assay, read-out: In vitro cytotoxicity at 10 μM dose, HCT 116 (percent growth inhibition)", "value": "61.3 ± 2.9", "unit": "%"}, {"measurement": "IC50", "setting": "HCT 116 cells; Colon, HCT116", "value": 8.93, "unit": "µM"}, {"measurement": "IC50", "setting": "CT26 cells", "value": "> 10", "unit": "µM"}, {"measurement": "IC50", "setting": "MCF-7 cells", "value": 5.02, "unit": "µM"}, {"measurement": "IC50", "setting": "4T1 cells", "value": 4.17, "unit": "µM"}, {"measurement": "IC50", "setting": "786-O cells", "value": 7.2, "unit": "µM"}, {"measurement": "IC50", "setting": "SK-OV-3 cells", "value": 3.91, "unit": "µM"}, {"measurement": "Stability in HLM", "setting": "[1]; HLM", "value": "quite stable"}, {"measurement": "Stability in MLM", "setting": "[1]; MLM", "value": "quite stable"}, {"measurement": "Stability in SGF", "setting": "[1]; SGF, listed as C6", "value": "highly stable; also recorded: quite stable"}, {"measurement": "Stability in SIF", "setting": "[1]; SIF, listed as C6", "value": "highly stable; also recorded: quite stable"}, {"measurement": "Stability in microsome", "setting": "[1]; microsome", "value": "highly stable"}, {"measurement": "Stability in plasma", "setting": "[1]; plasma", "value": "quite stable"}, {"measurement": "Xenograft tumor volume", "setting": "HCT-116 xenograft; oral administration", "value": "markedly reduced"}, {"measurement": "Xenograft tumor weight", "setting": "HCT-116 xenograft; oral administration", "value": "markedly reduced"}, {"measurement": "Xenograft tumor volume", "setting": "HCT-116 xenograft; subcutaneous administration", "value": "markedly reduced"}, {"measurement": "Xenograft tumor weight", "setting": "HCT-116 xenograft; subcutaneous administration", "value": "markedly reduced"}, {"measurement": "Body weight / tolerability during course of treatment", "setting": "[2]", "value": "no weight loss was observed"}, {"measurement": "Presence in tumor tissues", "setting": "[3]", "value": "presence of C6 in tumor tissues in significant quantity"}, {"measurement": "Sensitization of TRAIL mediated tumor cell cytotoxic response", "setting": "[4]", "value": "robustly sensitizes"}, {"measurement": "Colony formation in XIAP overexpressed and DR5 knock down cells", "setting": "cancer cells; XIAP overexpressed and DR5 knock down cells", "value": "significant resistant of C6 mediated apoptotic cell death"}, {"measurement": "Colony formation: effect of Pan caspase inhibitor Z-VAD-FMK on C6 cytotoxic phenotype", "setting": "cancer cells; with Z-VAD-FMK", "value": "markedly rescues cytotoxic phenotype of C6"}, {"measurement": "half-life", "setting": "in vivo; iv, 4 mg/kg", "value": "0.19 ± 0.05", "unit": "h"}, {"measurement": "half-life", "setting": "in vivo; po, 30 mg/kg", "value": "3.84 ± 1.8", "unit": "h"}, {"measurement": "half-life", "setting": "in vivo; sc, 30 mg/kg", "value": "2.1 ± 0.15", "unit": "h"}, {"measurement": "C1", "setting": "[5]; mice, IV route, 4 mg/kg", "value": "17 ± 4", "unit": "mL/min/kg"}, {"measurement": "C1", "setting": "[5]; mice, Oral route, 30 mg/kg", "value": "29.8 ± 5.33", "unit": "mL/min/kg"}, {"measurement": "Vd", "setting": "[5]; mice, Oral route, 30 mg/kg", "value": "9.52 ± 3.75", "unit": "L/kg"}, {"measurement": "C1", "setting": "[5]; mice, SC route, 30 mg/kg", "value": "29.2 ± 4", "unit": "mL/min/kg"}, {"measurement": "Vd", "setting": "[5]; mice, SC route, 30 mg/kg", "value": "5.32 ± 0.98", "unit": "L/kg"}, {"measurement": "AUC(0-inf)", "setting": "[5]; mouse, plasma, iv, 4 mg/kg", "value": "4110 ± 852", "unit": "ng·h/mL"}, {"measurement": "Cmax", "setting": "[5]; mouse, plasma, iv, 4 mg/kg", "value": "10200 ± 2630", "unit": "ng/mL"}, {"measurement": "MRT", "setting": "[5]; mouse, plasma, iv, 4 mg/kg", "value": "1.72 ± 0.46", "unit": "h"}, {"measurement": "Tmax", "setting": "[5]; mouse, plasma, iv, 4 mg/kg", "value": 0.08, "unit": "h"}, {"measurement": "Vd", "setting": "[5]; mouse, plasma, iv, 4 mg/kg", "value": "0.28 ± 0.12", "unit": "L/kg"}, {"measurement": "bioavailability", "setting": "[5]; mouse, plasma, oral, 30 mg/kg", "value": "55.9 ± 11.2", "unit": "%"}, {"measurement": "AUC(0-inf)", "setting": "[5]; mouse, plasma, po, 30 mg/kg", "value": "17200 ± 3430", "unit": "ng·h/mL"}, {"measurement": "Cmax", "setting": "[5]; mouse, plasma, po, 30 mg/kg", "value": "4490 ± 1510", "unit": "ng/mL"}, {"measurement": "MRT", "setting": "[5]; mouse, plasma, po, 30 mg/kg", "value": "4.18 ± 1.81", "unit": "h"}, {"measurement": "Tmax", "setting": "[5]; mouse, plasma, po, 30 mg/kg", "value": "1.08 ± 0.47", "unit": "h"}, {"measurement": "AUC(0-inf)", "setting": "[5]; mouse, plasma, sc, 30 mg/kg", "value": "17400 ± 2220", "unit": "ng·h/mL"}, {"measurement": "Cmax", "setting": "[5]; mouse, plasma, sc, 30 mg/kg", "value": "5020 ± 854", "unit": "ng/mL"}, {"measurement": "MRT", "setting": "[5]; mouse, plasma, sc, 30 mg/kg", "value": "8.92 ± 1.35", "unit": "h"}, {"measurement": "Tmax", "setting": "[5]; mouse, plasma, sc, 30 mg/kg", "value": "0.88 ± 0.21", "unit": "h"}, {"measurement": "bioavailability", "setting": "[5]; mouse, plasma, subcutaneous, 30 mg/kg", "value": "56.6 ± 7.21", "unit": "%"}]}
